Target: KRas (Homo sapiens, UniProt P01116, G12C)
Test: KRas degradation in NCI-H2030 cells by Western blot, normalized to GAPDH (data of Table 14)
Format: cell-based
Set-up: host or cells: NCI-H2030
Settings: for Dmax: NCI-H2030
How it was run: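 Cells serum-starved 24 h, then treated at 0.3, 1 and 3 μM in 0.1% DMSO, 24 h for VHL-based compounds and 72 h for others. Lysates (10 μg protein) immunoblotted; KRas normalized to GAPDH, degradation visually estimated below 25% or quantified versus DMSO lane, giving DC50 and DMax.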

| Compound | Percent Degradation at Indicated Concentration (μM) (H2030, 0.3 μM) | Percent Degradation at Indicated Concentration (μM) (H2030, 1 μM) | Percent Degradation at Indicated Concentration (μM) (H2030, 3 μM) | Dmax [%] | other results |
| --- | --- | --- | --- | --- | --- |
| C=CC(=O)N1CCN(c2nc(NCCC(=O)N(C)CCOCCOc3ccc(-c4csc([C@@H]5CCCN5C(=O)[C@@H](NC(=O)[C@H](C)NC)C5CCCCC5)n4)c4ccccc34)nc3c(F)c(-c4c(O)cccc4F)c(Cl)cc23)CC1 (atropisomer, axis not shown) [compound 276, 3-((4-(4-acryloylpiperazin-1-yl)-6-chloro-8-fluoro-7-((S)-2-fluoro-6-hydroxyphenyl)quinazolin-2-yl)amino)-N-(2-(2-((4-(2-((S)-1-((S)-2-cyclohexyl-2-((S)-2-(methylamino)propan-amido)acetyl)pyrrolidin-2-yl)thiazol-4-yl)naphthalen-1-yl)oxy)ethoxy)ethyl)-N-methylpropanamide] | C (Percent Degradation: C ≤ 35) | C (Percent Degradation: C ≤ 35) | C (Percent Degradation: C ≤ 35) | ≤ 35 |  |
| C=CC(=O)N1CCN(c2nc(NCCC(=O)N(C)CCOCCNc3cccc4c3C(=O)N(C3CCC(=O)NC3=O)C4=O)nc3c(F)c(-c4c(O)cccc4F)c(Cl)cc23)CC1 [compound 109, 3-(((S)-4-(4-acryloylpiperazin-1-yl)-6-chloro-8-fluoro-7-(2-fluoro-6-hydroxyphenyl)quinazolin-2-yl)amino)-N-(2-(2-((2-(2,6-dioxopiperidin-3-yl)-1,3-dioxoisoindolin-4-yl)amino)ethoxy)ethyl)-N-methylpropanamide] | C (Percent Degradation: C ≤ 35) | C (Percent Degradation: C ≤ 35) | C (Percent Degradation: C ≤ 35) | ≤ 35 |  |
| CN(CCOCCOCCOCCOc1ccc2c(c1)CN(C1CCC(=O)NC1=O)C2=O)C(=O)CCNc1nc(N2CCN(C(N)=O)CC2)c2cc(Cl)c(-c3cc(O)cc4ccccc34)c(F)c2n1 (stereo not shown) [compound 39, 4-(6-chloro-2-((1-((2-(2,6-dioxopiperidin-3-yl)-1-oxoisoindolin-5-yl)oxy)-12-methyl-13-oxo-3,6,9-trioxa-12-azapentadecan-15-yl)amino)-8-fluoro-7-(3-hydroxynaphthalen-1-yl)quinazolin-4-yl)piperazine-1-carboxamide] | C (Percent Degradation: C ≤ 35) | C (Percent Degradation: C ≤ 35) | C (Percent Degradation: C ≤ 35) | ≤ 35 |  |
| CCC(=O)N1CCN(c2nc(NCCC(=O)N(C)CCOCCOCCOCCOCCOCC(=O)N[C@H](C(=O)N3C[C@H](O)C[C@H]3C(=O)N[C@@H](C)c3ccc(-c4scnc4C)cc3)C(C)(C)C)nc3c(F)c(-c4cc(O)cc5ccccc45)c(Cl)cc23)CC1 [compound 190, (2S,4R)-1-((2S)-2-(tert-butyl)-24-((6-chloro-8-fluoro-7-(3-hydroxynaphthalen-1-yl)-4-(4-propionylpiperazin-1-yl)quinazolin-2-yl)amino)-21-methyl-4,22-dioxo-6,9,12,15,18-pentaoxa-3,21-diazatetracosanoyl)-4-hydroxy-N-((S)-1-(4-(4-methylthiazol-5-yl)phenyl)ethyl)pyrrolidine-2-carboxamide] |  |  |  |  | Percent Degradation at Indicated Concentration (μM): 0.3 (H2030 cells, 0.3 μM): C (C ≤ 35); Percent Degradation at Indicated Concentration (μM): 1 (H2030 cells, 1 μM): C (C ≤ 35); Percent Degradation at Indicated Concentration (μM): 3 (H2030 cells, 3 μM): C (C ≤ 35); Dmax (H2030 cells): ≤ 35% |
| CC(=O)N1CCN(c2nc(NCCC(=O)N(C)CCOCC(=O)N[C@H](C(=O)N3C[C@H](O)C[C@H]3C(=O)N[C@@H](C)c3ccc(-c4scnc4C)cc3)C(C)(C)C)nc3c(F)c(-c4cc(O)cc5ccccc45)c(Cl)cc23)CC1 [compound 200, (2S,4R)-1-((2S)-2-(2-(2-(3-((4-(4-acetylpiperazin-1-yl)-6-chloro-8-fluoro-7-(3-hydroxynaphthalen-1-yl)quinazolin-2-yl)amino)-N-methylpropanamido)ethoxy)acetamido)-3,3-dimethylbutanoyl)-4-hydroxy-N-((S)-1-(4-(4-methylthiazol-5-yl)phenyl)ethyl)pyrrolidine-2-carboxamide] | C (Percent Degradation: C ≤ 35) | C (Percent Degradation: C ≤ 35) | C (Percent Degradation: C ≤ 35) | ≤ 35 |  |
| Cc1ncsc1-c1ccc([C@H](C)NC(=O)[C@@H]2C[C@@H](O)CN2C(=O)[C@@H](NC(=O)COCCOCCOCCOCCN(C)C(=O)CCNc2nc(N3CCN(C(=O)C(O)O)CC3)c3cc(Cl)c(-c4c(O)cccc4F)c(F)c3n2)C(C)(C)C)cc1 (atropisomer, axis not shown) [compound 240, (2S,4R)-1-((S)-2-(tert-butyl)-21-(((S)-6-chloro-4-(4-(2,2-dihydroxyacetyl)piperazin-1-yl)-8-fluoro-7-(2-fluoro-6-hydroxyphenyl)quinazolin-2-yl)amino)-18-methyl-4,19-dioxo-6,9,12,15-tetraoxa-3,18-diazahenicosanoyl)-4-hydroxy-N-((S)-1-(4-(4-methylthiazol-5-yl)phenyl)ethyl)pyrrolidine-2-carboxamide] |  |  |  |  | Percent Degradation at Indicated Concentration (μM) (H2030 cells, 0.3 μM): C (Percent Degradation: C ≤ 35); Percent Degradation at Indicated Concentration (μM) (H2030 cells, 1 μM): C (Percent Degradation: C ≤ 35); Percent Degradation at Indicated Concentration (μM) (H2030 cells, 3 μM): C (Percent Degradation: C ≤ 35) |
| C=CC(=O)N1CCN(c2nc(NCCC(=O)N(C)CCOCCOCCOc3ccc4c(c3)C(=O)N(C3CCC(=O)NC3=O)C4=O)nc3c(F)c(-c4cc(O)cc5ccccc45)c(Cl)cc23)CC1 (stereo not shown) [compound 61, 3-((4-(4-acryloylpiperazin-1-yl)-6-chloro-8-fluoro-7-(3-hydroxynaphthalen-1-yl)quinazolin-2-yl)amino)-N-(2-(2-(2-((2-(2,6-dioxopiperidin-3-yl)-1,3-dioxoisoindolin-5-yl)oxy)ethoxy)ethoxy)ethyl)-N-methylpropanamide] |  |  |  |  | Percent Degradation at Indicated Concentration (μM): 0.1 (H2030 cells, 0.1 μM): C (C ≤ 35); Percent Degradation at Indicated Concentration (μM): 0.3 (H2030 cells, 0.3 μM): C (C ≤ 35); Percent Degradation at Indicated Concentration (μM): 1 (H2030 cells, 1 μM): C (C ≤ 35); Dmax (H2030 cells): ≤ 35% |
| C=CC(=O)N1CCN(c2nc(NCCCN(C)CCOCCOCCOCCOCC(=O)N[C@H](C(=O)N3C[C@H](O)C[C@H]3C(=O)N[C@@H](C)c3ccc(-c4scnc4C)cc3)C(C)(C)C)nc3c(F)c(-c4cc(O)cc5ccccc45)c(Cl)cc23)CC1 [compound 396, (2S,4R)-1-((2S)-21-((4-(4-acryloylpiperazin-1-yl)-6-chloro-8-fluoro-7-(3-hydroxynaphthalen-1-yl)quinazolin-2-yl)amino)-2-(tert-butyl)-18-methyl-4-oxo-6,9,12,15-tetraoxa-3,18-diazahenicosanoyl)-4-hydroxy-N-((S)-1-(4-(4-methylthiazol-5-yl)phenyl)ethyl)pyrrolidine-2-carboxamide] | C (Percent Degradation: C ≤ 35) | C (Percent Degradation: C ≤ 35) | C (Percent Degradation: C ≤ 35) | ≤ 35 |  |
| CN(CCOCCOc1ccc2c(c1)C(=O)N(C1CCC(=O)NC1=O)C2=O)C(=O)CCNc1nc(N2CCN(C(N)=O)CC2)c2cc(Cl)c(-c3cc(O)cc4ccccc34)c(F)c2n1 (stereo not shown) [compound 27, 4-(6-chloro-2-((3-((2-(2-((2-(2,6-dioxopiperidin-3-yl)-1,3-dioxoisoindolin-5-yl)oxy)ethoxy)ethyl)(methyl)amino)-3-oxopropyl)amino)-8-fluoro-7-(3-hydroxynaphthalen-1-yl)quinazolin-4-yl)piperazine-1-carboxamide] | C (Percent Degradation: C ≤ 35) | C (Percent Degradation: C ≤ 35) | C (Percent Degradation: C ≤ 35) | ≤ 35 |  |
| C=CC(=O)N1CCN(c2nc(NCCC(=O)N(C)CCOc3ccc4c(c3)C(=O)N(C3CCC(=O)NC3=O)C4=O)nc3c(F)c(-c4cc(O)cc5ccccc45)c(Cl)cc23)CC1 (stereo not shown) [compound 467, 3-((4-(4-acryloylpiperazin-1-yl)-6-chloro-8-fluoro-7-(3-hydroxynaphthalen-1-yl)quinazolin-2-yl)amino)-N-(2-((2-(2,6-dioxopiperidin-3-yl)-1,3-dioxoisoindolin-5-yl)oxy)ethyl)-N-methylpropanamide] | C (Percent Degradation: C ≤ 35) | C (Percent Degradation: C ≤ 35) | C (Percent Degradation: C ≤ 35) | ≤ 35 |  |
| CCC(=O)N1CCN(c2nc(NCCC(=O)N(C)CCOCCOCCOCCOc3ccc4c(c3)C(=O)N(C3CCC(=O)NC3=O)C4=O)nc3c(F)c(-c4cc(O)cc5ccccc45)c(Cl)cc23)CC1 (stereo not shown) [compound 49, 3-((6-chloro-8-fluoro-7-(3-hydroxynaphthalen-1-yl)-4-(4-propionylpiperazin-1-yl)quinazolin-2-yl)amino)-N-(2-(2-(2-(2-((2-(2,6-dioxopiperidin-3-yl)-1,3-dioxoisoindolin-5-yl)oxy)ethoxy)ethoxy)ethoxy)ethyl)-N-methylpropanamide] |  |  |  |  | Percent Degradation at Indicated Concentration (μM): 0.3 (H2030 cells, 0.3 μM): C (C ≤ 35); Percent Degradation at Indicated Concentration (μM): 1 (H2030 cells, 1 μM): C (C ≤ 35); Percent Degradation at Indicated Concentration (μM): 3 (H2030 cells, 3 μM): C (C ≤ 35); Dmax (H2030 cells): ≤ 35% |

From patent US12552783B2, “Modulators of proteolysis and associated methods of use” (Arvinas Operations, Inc., priority 2018, dated 2026)
